According to US6096512A, “Cloned DNA encoding a UDP-GalNAc: Polypeptide, N-acetylgalactosaminyltransferase” (Pharmacia & Upjohn Company, priority 1997, dated 2000):
Several values for one entry are separate records, joined by “and”; a condition that tells them apart may be missing. Identical values can stand only once. Residues, ends and D or L forms follow the SMILES beside them.

What was measured:
[1] = target: T1, bovine colostrum GalNAc-transferase (Bos taurus, UniProt Q07537); assay: Comparison of different synthetic peptides as acceptors (Biogel P-2 separation); assay type: biochemical
T1 sequence (Q07537 41-559): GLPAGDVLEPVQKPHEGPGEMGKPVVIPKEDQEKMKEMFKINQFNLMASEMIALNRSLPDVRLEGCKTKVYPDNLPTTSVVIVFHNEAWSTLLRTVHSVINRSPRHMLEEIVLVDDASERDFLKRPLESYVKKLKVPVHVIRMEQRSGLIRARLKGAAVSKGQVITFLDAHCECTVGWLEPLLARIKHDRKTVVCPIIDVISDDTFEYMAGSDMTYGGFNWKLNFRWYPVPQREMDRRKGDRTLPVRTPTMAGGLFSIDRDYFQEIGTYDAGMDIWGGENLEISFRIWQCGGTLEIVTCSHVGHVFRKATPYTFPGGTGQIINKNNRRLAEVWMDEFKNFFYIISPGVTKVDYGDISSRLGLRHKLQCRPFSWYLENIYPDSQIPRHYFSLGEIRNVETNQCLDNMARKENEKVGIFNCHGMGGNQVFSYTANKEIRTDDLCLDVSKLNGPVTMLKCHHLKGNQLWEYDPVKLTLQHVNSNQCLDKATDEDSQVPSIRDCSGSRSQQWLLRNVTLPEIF
Description: (§1) The t-Boc-amino acids and the PAM resin solid supports are supplied by ABI. The completed peptides are removed from the supporting resin, concurrently with the side chain-protecting groups, by a standard HF cleavage procedure using anisole as a cation scavenger (10% v/v). The crude peptides are purified by preparative reverse phase chromatography on a C18 Vydac column (2.5×30 cm) using a water/acetonitrile gradient, each phase containing 0.1% TFA.
The transfer of N-acetylgalactosamine to peptide acceptors is assayed by two different assays. […] For the determination of kinetic parameters the reaction mixture contains 50 mM Imidazole, pH 7.2, 10 mM MnCl2, 0.5% Triton X-100, 150 μM UDP-GalNAc, approximately 120,000 cpm of UDP-[1-^3 H]-GalNAc, varying concentrations of acceptor (see individual experiments) and approximately 5 mU of enzyme in a final volume of 40 μl; standard incubation time is 20 minutes. The reaction is terminated by placing the samples in a boiling water bath for 1.5 minutes. The reaction product (glycosylated peptide) is separated from unreacted UDP-GalNAc by chromatography on Dowex-2 columns (0.5 ml bed volume) equilibrated in water; the run-through fraction (2.5 ml) containing the glycosylated peptide is collected, supplemented with scintillation fluid and counted for radioactivity. For the determination of the low levels of transfer to serine, the assay conditions are as follows: 50 mM Imidazole, pH 7.2, 10 mM MnCl2, 0.5% Triton X-100, 150 μM UDP-GalNAc, approximately 260,000 cpm UDP-[^3 H]-GalNAc and 3.2 mM acceptor peptide (the concentration of RSPPP is 3.7 mM). […] Following incubation, the enzyme is inactivated by placing the samples on a boiling water bath for 1.5 minutes. The samples are then allowed to cool and the reaction products are separated from unreacted UDP-GalNAc and free GalNAc by chromatography on a Biogel P-2 column (1×50 cm) equilibrated in 7% isopropanol; thirty 1.3 ml fractions are collected.
Assays were done as described in Materials and Methods. The products
were separated by Biogel P-2 chromatography. Assay times were 20 […]

[2] = target: T1, bovine colostrum GalNAc-transferase; assay: Determination of kinetic parameters for acceptor peptides; assay type: biochemical
Description: as §1
The transfer of N-acetylgalactosamine to peptide acceptors is assayed by two different assays. […] For the determination of kinetic parameters the reaction mixture contains 50 mM Imidazole, pH 7.2, 10 mM MnCl2, 0.5% Triton X-100, 150 μM UDP-GalNAc, approximately 120,000 cpm of UDP-[1-^3 H]-GalNAc, varying concentrations of acceptor (see individual experiments) and approximately 5 mU of enzyme in a final volume of 40 μl; standard incubation time is 20 minutes. The reaction is terminated by placing the samples in a boiling water bath for 1.5 minutes. The reaction product (glycosylated peptide) is separated from unreacted UDP-GalNAc by chromatography on Dowex-2 columns (0.5 ml bed volume) equilibrated in water; the run-through fraction (2.5 ml) containing the glycosylated peptide is collected, supplemented with scintillation fluid and counted for radioactivity. […]

[3] = tested on: GalNAcTs (cloned soluble GalNAc-transferase); assay: Transfer of N-acetylgalactosamine to synthetic acceptor peptides by soluble GalNAc-transferase, kinetic parameters; conditions: read-out: Km for UDP-GalNAc
[4] = target: T1, bovine colostrum GalNAc-transferase; assay: Transfer of N-acetylgalactosamine to protein acceptors by bovine colostrum GalNAc-transferase; assay type: biochemical; conditions: for acceptor activity in words: native or reduced and carboxymethylated
Procedure: (§2) The standard assay for UDP-GalNAc:polypeptide, N-acetylgalactosaminyltransferase activity during purification contained the following components in a final volume of 80 μl: 50 mM Imidazole pH 7.2, 10 mM MnCl2, 0.5% Triton X-100, 15 μM UDP-GalNAc, UDP[1-^3 H-] GalNAc (27,000 cpm/assay), 0.15 mg/ml apomucin and varying amounts of enzyme (see individual experiments). The reaction mixture is incubated at 37° C. for 5-10 minutes (see individual experiments) and the reaction product is TCA precipitated and radioactivity measured as described. Assays for activity in lysates from Spodoptera frugiperda cell line 9 (hereinafter referred to as Sf9 cells) are carried out as described by Thomsen et al., (1990).
The above conclusions and the predictions of the specificity algorithm are validated experimentally by studying the ability of bovine colostrum GalNAc-transferase to transfer N-acetylgalactosamine to a variety of acceptors, both native proteins and synthetic acceptor peptides. The transfer of N-acetylgalactosamine to protein acceptors is assayed as described by Elhammer and Kornfeld, 1986, with minor modifications. The concentration of UDP-GalNAc is saturating in all assays; a Km of 8 μM is reported for bovine colostrum GalNAc-transferase (Elhammer and Kornfeld, 1986).
The transfer of N-acetylgalactosamine to protein acceptors was assayed
under standard conditions (see Material and Methods). The acceptor
concentration was 65 μM, the enzyme concentration approximately
65 mU/ml and assay time was 60 minutes. The transfer to both native and
reduced-carboxymethylated acceptors was assayed.

[5] = tested on: GalNAc-transferase activity in Sf9 cells; assay: Expression of baculovirus isolates of the GalNAc-transferase in Sf9 cells, GalNAcT activity; assay type: cell-based, Spodoptera frugiperda
Procedure: as §2
The putative GalNAcT coding region, pCR1000-91B, is digested with SstII and HindIII (both enzymes cut only in pCR1000 sequences that flank the insert; FIG. 2C) and these sites are blunted using T4 DNA polymerase so that it can be cloned into a baculovirus expression vector. BamHI linkers are then ligated onto the blunted ends and the resulting sample is ligated into the BamHI site of the baculovirus expression vector pAC373 (Summers and Smith, 1986). The resulting isolates are screened for proper orientation of the GalNAcT open reading frame with respect to the baculovirus polyhedron promoter, to yield pAC373-GalNAcT. […]

Molecule: N=C(N)NCCC[C@H](N)C(=O)N[C@@H](CO)C(=O)N1CCC[C@H]1C(=O)N1CCC[C@H]1C(=O)N1CCC[C@H]1C(=O)O [RSPPP, Arg-Ser-Pro-Pro-Pro] (H-RSPPP-OH)
- slower glycosylation than PPAdSSdSAPG ([1]; RSPPP vs PPAdSSdSAPG): three times slower than PPAdSSdSAPG
- Relative rate ([1]; […]): 1/751
- Product formed ([1]; assay time 8 hours, 3.2 mM acceptor (RSPPP 3.7 mM)): 0.67 nmol/min/mg

Molecule: C[C@@H](O)[C@H](NC(=O)[C@@H](N)CCCNC(=N)N)C(=O)N1CCC[C@H]1C(=O)N1CCC[C@H]1C(=O)N1CCC[C@H]1C(=O)O [RTPPP, Arg-Thr-Pro-Pro-Pro] (H-RTPPP-OH)
- Km ([2]; 20 minutes, mean, S.E. (n = 3)): 3300 ± 600 µM
- Vmax /Km ([2]; from Km and Vmax): 183 M⁻¹ s⁻¹

Molecule: CC(=O)N[C@H]1[C@@H](OP(=O)(O)OP(=O)(O)OC[C@H]2O[C@@H](n3ccc(=O)[nH]c3=O)[C@H](O)[C@@H]2O)O[C@H](CO)[C@H](O)[C@@H]1O [UDP-GalNAc, UDP-N-acetylgalactosamine]
- Km [3]: ~1.7 µM and 1.7 µM

Molecule: Bovine cytochrome C: contains one Ser and eight Thr residues but no predicted potential sites [reference compound]
- Product formed, native acceptor ([4]; acceptor 65 μM, enzyme approximately 65 mU/ml, 60 minutes, native): < 0.1 nmol/min/mg
- Product formed, reduced and carboxymethylated acceptor ([4]; acceptor 65 μM, enzyme approximately 65 mU/ml, 60 minutes, myelin basic protein was not reduced and carboxymethylated): < 0.1 nmol/min/mg
- acceptor activity in words ([4]; listed as bovine cytochrome C): is not an acceptor for the enzyme
- acceptor activity in words ([4]; listed as cytochrome C): completely inactive as an acceptor

Molecule: CMW Pol-1: baculovirus containing an unrelated gene, human cytomegalovirus DNA polymerase gene [reference compound]
- Specific activity ([5]; Sf9 cell lysates, 48 hours post infection): 0.13 Units/mg protein
- Relative rate ([5]; relative to uninfected cells): 0.8
